Data as given in US4959460A, “3'-deamino-3'-(2"-substituted-4"-morpholino)-anthracycline compounds” (priority 1988, dated 1990).
In brackets after ≈: the same amount, converted by molar mass.

Columns and labels:
[1] = tested on: P388 mouse leukemia cells; assay: Anti-proliferative activity against cultivated P388 mouse leukemia cells; format: cell-based; details: P388 cells 5×10^4 cells/ml, RPMI 1640, 10% fetal bovine serum, 37° C., read-out: 50% proliferation-inhibitory concentration (IC50)
Experimental: (1) Anti-proliferative activity against cultivated P388 mouse leukemia cells:
More specifically, a medium RPMI 1640 (Rosewell Park Memorial Institute medium 1640) containing a given amount of the 3'-deamino-3'-(2"-substituted-4"-morpholino) anthracycline compound and 10% fetal bovine serum was inoculated with cultivated P388 5×10^4 cells/ml. Incubation was carried out at 37° C. in a CO2 incubator, and the number of the cells in each medium was then counted to determine 50% proliferation-inhibitory concentration (IC50, ng/ml) relative to the control (no test compounds added).

P388 leukemia = assay: Antitumor activity against P388 leukemia intraperitoneally transplanted into CDF2 mice; format: in vivo; details: for T/C: control = 100
Experimental: The effects of the test anthracycline compounds are shown below in terms of T/C (%), the survival days of the control mice to which physiological saline solutions was administered being specified as 100.

[2] = 0.25 mg/kg i.v., day 1 and day 5
[3] = 0.5 mg/kg i.v., day 1 and day 5
[4] = 0.125 mg/kg i.v., day 1 and day 5
[5] = 2 mg/kg i.v., administered only day 1
[6] = 4 mg/kg i.v., administered only day 1
[7] = 1 mg/kg i.v., administered only day 1
[8] = 16 mg/kg i.v., administered only day 1
[9] = 0.29 mg/kg i.v., day 1 and day 5
[10] = 0.44 mg/kg i.v., day 1 and day 5
[11] = 0.66 mg/kg i.v., day 1 and day 5
[12] = 0.99 mg/kg i.v., day 1 and day 5
[13] = 1.48 mg/kg i.v., day 1 and day 5
[14] = 2.22 mg/kg i.v., day 1 and day 5
[15] = 3.33 mg/kg i.v., day 1 and day 5
[16] = 5.00 mg/kg i.v., day 1 and day 5

With CC[C@@]1(O)C[C@H](O[C@H]2C[C@H](N3CCO[C@@H](N=[N+]=[N-])C3)[C@H](O)[C@H](C)O2)c2c(O)c3c(c(O)c2[C@H]1O)C(=O)c1cccc(O)c1C3=O [3'-Deamino-3'-[(2"R)-2"-azido-4"-morpholino]-13-deoxo-10-hydroxycarminomycin] the IC50 [1] was 0.0189 µg/mL (≈ 0.0302 µM), the “Number of cured mice/Number of test mice” value (P388 leukemia; [2]) was 0/6 and the T/C (P388 leukemia; [2]) was 115%. For the same molecule, the “Number of cured mice/Number of test mice” value (P388 leukemia; [3]) was 0/6, the T/C (P388 leukemia; [3]) was 163% and the “Number of cured mice/Number of test mice” value (P388 leukemia; 1 mg/kg i.v., day 1 and day 5) was 0/6. The T/C (P388 leukemia; 1 mg/kg i.v., day 1 and day 5) was 196%, the “Number of cured mice/Number of test mice” value (P388 leukemia; 2 mg/kg i.v., day 1 and day 5) was 0/6 and the T/C (P388 leukemia; 2 mg/kg i.v., day 1 and day 5) was 294%. The “Number of cured mice/Number of test mice” value (P388 leukemia; 4 mg/kg i.v., day 1 and day 5) was 0/6 and the T/C (P388 leukemia; 4 mg/kg i.v., day 1 and day 5) was 124%.

In the case of CC[C@@]1(O)C[C@H](O[C@H]2C[C@H](N3CCO[C@@H](OC)C3)[C@H](O)[C@H](C)O2)c2c(O)c3c(c(O)c2[C@H]1O)C(=O)c1cccc(O)c1C3=O [3'-Deamino-3'-[(2"R)-2"-methoxy-4"-morpholino]-13-deoxo-10-hydroxycarminomycin], the IC50 [1] is reported as 0.009 µg/mL (≈ 0.0146 µM), the “Number of cured mice/Number of test mice” value (P388 leukemia; [4]) is reported as 0/6 and the T/C (P388 leukemia; [4]) is reported as 119%. The “Number of cured mice/Number of test mice” value (P388 leukemia; [2]) was 0/6, the T/C (P388 leukemia; [2]) was 149% and the “Number of cured mice/Number of test mice” value (P388 leukemia; [3]) was 0/6. The T/C (P388 leukemia; [3]) was 172%, the “Number of cured mice/Number of test mice” value (P388 leukemia; 1 mg/kg i.v., day 1 and day 5) was 0/6 and the T/C (P388 leukemia; 1 mg/kg i.v., day 1 and day 5) was 181%. For the same molecule, the “Number of cured mice/Number of test mice” value (P388 leukemia; [5]) was 0/6 and the T/C (P388 leukemia; [5]) was 36%.

Work on CC[C@@]1(O)C[C@H](O[C@H]2C[C@H](N3CCO[C@H](C)C3)[C@H](O)[C@H](C)O2)c2c(O)c3c(c(O)c2[C@H]1O)C(=O)c1cccc(O)c1C3=O [3'-Deamino-3'-[(2"R)-2"-methyl-4"-morpholino]-13-deoxo-10-hydroxycarminomycin] yielded an IC50 [1] of 0.034 µg/mL (≈ 0.0567 µM).

CC[C@@]1(O)C[C@H](O[C@H]2C[C@H](N3CCO[C@@H](NC(=O)C(F)(F)F)C3)[C@H](O)[C@H](C)O2)c2c(O)c3c(c(O)c2[C@H]1O)C(=O)c1cccc(O)c1C3=O [3'-Deamino-3'-[(2"R)-2"-trifluoroacetamido-4"-morpholino]-13-deoxo-10-hydroxycarminomycin] was tested, and the IC50 [1] was 0.0225 µg/mL (≈ 0.0323 µM), the “Number of cured mice/Number of test mice” value (P388 leukemia; 2 mg/kg i.v., day 1 and day 5) was 0/6 and the T/C (P388 leukemia; 2 mg/kg i.v., day 1 and day 5) was 120%. The “Number of cured mice/Number of test mice” value (P388 leukemia; 4 mg/kg i.v., day 1 and day 5) was 0/6, the T/C (P388 leukemia; 4 mg/kg i.v., day 1 and day 5) was 150% and the “Number of cured mice/Number of test mice” value (P388 leukemia; 8 mg/kg i.v., day 1 and day 5) was 0/6. The T/C (P388 leukemia; 8 mg/kg i.v., day 1 and day 5) was 165%, the “Number of cured mice/Number of test mice” value (P388 leukemia; 16 mg/kg i.v., day 1 and day 5) was 2/6 and the T/C (P388 leukemia; 16 mg/kg i.v., day 1 and day 5) was 319%.

CC[C@@]1(O)C[C@H](O[C@H]2C[C@H](N3CCO[C@H](CO)C3)[C@H](O)[C@H](C)O2)c2c(O)c3c(c(O)c2[C@H]1O)C(=O)c1cccc(O)c1C3=O [3'-Deamino-3'-[(2"S) -2"-hydroxymethyl-4"-morpholino]-13-deoxo-10-hydroxycarminomycin] gave an IC50 [1] of 0.02 µg/mL (≈ 0.0325 µM).

In the case of CC[C@@]1(O)C[C@H](O[C@H]2C[C@H](N3CCO[C@H](NC(C)=O)C3)[C@H](O)[C@H](C)O2)c2c(O)c3c(c(O)c2[C@H]1O)C(=O)c1cccc(O)c1C3=O [3'-Deamino-3'-[(2"S)-2"-acetamido-4"-morpholino]-13-deoxo-10-hydroxycarminomycin], the IC50 [1] is reported as 0.083 µg/mL (≈ 0.129 µM), the “Number of cured mice/Number of test mice” value (P388 leukemia; 2 mg/kg i.v., day 1 and day 5) is reported as 0/6 and the T/C (P388 leukemia; 2 mg/kg i.v., day 1 and day 5) is reported as 124%. The “Number of cured mice/Number of test mice” value (P388 leukemia; 4 mg/kg i.v., day 1 and day 5) was 0/6, the T/C (P388 leukemia; 4 mg/kg i.v., day 1 and day 5) was 124% and the “Number of cured mice/Number of test mice” value (P388 leukemia; 8 mg/kg i.v., day 1 and day 5) was 0/6. The T/C (P388 leukemia; 8 mg/kg i.v., day 1 and day 5) was 146%, the “Number of cured mice/Number of test mice” value (P388 leukemia; 16 mg/kg i.v., day 1 and day 5) was 0/6 and the T/C (P388 leukemia; 16 mg/kg i.v., day 1 and day 5) was 340%.

In the case of CC[C@@]1(O)C[C@H](O[C@H]2C[C@H](N3CCO[C@H](N=[N+]=[N-])C3)[C@H](O)[C@H](C)O2)c2c(O)c3c(c(O)c2[C@H]1O)C(=O)c1cccc(O)c1C3=O [3'-Deamino-3'-[(2"S)-2"-azido-4"-morpholino]-13-deoxo-10-hydroxycarminomycin], the IC50 [1] is reported as 0.024 µg/mL (≈ 0.0383 µM), the “Number of cured mice/Number of test mice” value (P388 leukemia; [3]) is reported as 0/6 and the T/C (P388 leukemia; [3]) is reported as 122%. The “Number of cured mice/Number of test mice” value (P388 leukemia; 1 mg/kg i.v., day 1 and day 5) was 0/6, the T/C (P388 leukemia; 1 mg/kg i.v., day 1 and day 5) was 163% and the “Number of cured mice/Number of test mice” value (P388 leukemia; 2 mg/kg i.v., day 1 and day 5) was 0/6. For the same molecule, the T/C (P388 leukemia; 2 mg/kg i.v., day 1 and day 5) was 231%, the “Number of cured mice/Number of test mice” value (P388 leukemia; [6]) was 1/6 and the T/C (P388 leukemia; [6]) was 355%.

Work on CC[C@@]1(O)C[C@H](O[C@H]2C[C@H](N3CCO[C@H](CCl)C3)[C@H](O)[C@H](C)O2)c2c(O)c3c(c(O)c2[C@H]1O)C(=O)c1cccc(O)c1C3=O [3'-Deamino-3'-[(2"S)-2"-chloromethyl-4"-morpholino]-13-deoxo-10-hydroxycarminomycin] yielded an IC50 [1] of 0.036 µg/mL (≈ 0.0568 µM).

For CC[C@@]1(O)C[C@H](O[C@H]2C[C@H](N3CCO[C@H](OC)C3)[C@H](O)[C@H](C)O2)c2c(O)c3c(c(O)c2[C@H]1O)C(=O)c1cccc(O)c1C3=O [3'-Deamino-3'-[(2"S)-2"-methoxy-4"-morpholino]-13-deoxo-10-hydroxycarminomycin], the IC50 [1] was 0.018 µg/mL (≈ 0.0292 µM), the “Number of cured mice/Number of test mice” value (P388 leukemia; [4]) was 0/6 and the T/C (P388 leukemia; [4]) was 103%. For the same molecule, the “Number of cured mice/Number of test mice” value (P388 leukemia; [2]) was 0/6, the T/C (P388 leukemia; [2]) was 182% and the “Number of cured mice/Number of test mice” value (P388 leukemia; [3]) was 0/6. For the same molecule, the T/C (P388 leukemia; [3]) was 196%, the “Number of cured mice/Number of test mice” value (P388 leukemia; [7]) was 0/6 and the T/C (P388 leukemia; [7]) was 182%.

CC[C@@]1(O)C[C@H](O[C@H]2C[C@H](N3CCO[C@H](NC(=O)C(F)(F)F)C3)[C@H](O)[C@H](C)O2)c2c(O)c3c(c(O)c2[C@H]1O)C(=O)c1cccc(O)c1C3=O [3'-Deamino-3'-[(2"S)-2"-trifluoroacetamido-4"-morpholino]-13-deoxo-10-hydroxycarminomycin] was tested, and the IC50 [1] was 0.052 µg/mL (≈ 0.0746 µM), the “Number of cured mice/Number of test mice” value (P388 leukemia; 2 mg/kg i.v., day 1 and day 5) was 0/6 and the T/C (P388 leukemia; 2 mg/kg i.v., day 1 and day 5) was 136%. For the same molecule, the “Number of cured mice/Number of test mice” value (P388 leukemia; 4 mg/kg i.v., day 1 and day 5) was 0/6, the T/C (P388 leukemia; 4 mg/kg i.v., day 1 and day 5) was 181% and the “Number of cured mice/Number of test mice” value (P388 leukemia; 8 mg/kg i.v., day 1 and day 5) was 0/6. The T/C (P388 leukemia; 8 mg/kg i.v., day 1 and day 5) was 229%, the “Number of cured mice/Number of test mice” value (P388 leukemia; [8]) was 0/6 and the T/C (P388 leukemia; [8]) was 263%.

For CC[C@@]1(O)C[C@H](O[C@H]2C[C@H](N3CCOCC3)[C@H](O)[C@H](C)O2)c2c(O)c3c(c(O)c2[C@H]1O)C(=O)c1cccc(O)c1C3=O [3'Deamino-3'-morpholino-R20X2, reference compound], the “Number of cured mice/Number of test mice” value (P388 leukemia; [9]) was 0/6, the T/C (P388 leukemia; [9]) was 110% and the “Number of cured mice/Number of test mice” value (P388 leukemia; [10]) was 0/6. The T/C (P388 leukemia; [10]) was 143%, the “Number of cured mice/Number of test mice” value (P388 leukemia; [11]) was 0/6 and the T/C (P388 leukemia; [11]) was 162%. For the same molecule, the “Number of cured mice/Number of test mice” value (P388 leukemia; [12]) was 0/6, the T/C (P388 leukemia; [12]) was 173% and the “Number of cured mice/Number of test mice” value (P388 leukemia; [13]) was 0/6. For the same molecule, the T/C (P388 leukemia; [13]) was 189%, the “Number of cured mice/Number of test mice” value (P388 leukemia; [14]) was 0/6 and the T/C (P388 leukemia; [14]) was 189%. For the same molecule, the “Number of cured mice/Number of test mice” value (P388 leukemia; [15]) was 0/6, the T/C (P388 leukemia; [15]) was 240% and the “Number of cured mice/Number of test mice” value (P388 leukemia; [16]) was 0/6. For the same molecule, the T/C (P388 leukemia; [16]) was 135%.
